Data taken from patent US7906488B2, “Sphingolipids in treatment and prevention of steatosis and of steatosis or of hepatotoxicity and its sequelae” (Nederlandse Organisatie Voor …, priority 2004, dated 2011).

How the values were obtained:
[1] = tested on: APOE*3Leiden mice; experiment: Plasma ALAT, SAA and fibrinogen (plasma inflammation markers); assay type: in vivo; conditions: 1% PS diet
Description: Plasma parameters: Tail blood samples were collected in EDTA-coated cups, or in paraoxon-coated capillaries to prevent lipolysis as described in Zambon et al. 1993 (Zambon et al. 1993. J. Lipid Res. 34:1021-1028). Plasma lipid parameters were determined using commercial kits for total cholesterol (C) Chol R1 from Roche Diagnostics, Mannheim, Germany), non-esterified free fatty acids (FFA) (NEFA-C; Wako chemicals, Neuss, Germany), Total triglycerides (TG) (Triglyceride GPO-Trinder; Sigma, St. Louis, Mo.), β-hydroxybutyrate (β-HB; Sigma) and ALAT (Reflotron GPT; Roche). Serum amyloid A (SAA) was measured by ELISA (Biosource, Nivelles, Belgium) and fibrinogen by sandwich ELISA, as described in Koopman et al., 2005 (Koopman et al. 2005. Fibrinol Proteol 11:19). For lipoproteins fractionation, groupwise-pooled plasma was size-fractionated by fast protein liquid chromatography (FPLC) on a Superose 6 column (Äkta; Amersham Pharmacia Biotech, Uppsala, Sweden). Fractions were assayed for total C and TG as described. Hepatic VLDL-TG production: The rate of hepatic VLDL-TG production, de novo apoB secretion, and VLDL composition were determined in overnight-fasted mice. Mice were anaesthetized with vetranquil/fentanyl/midazolam i.p., and injected i.v. with 0.1 ml PBS containing 100 μCi Tran^35S-label™ (ICN Biomedicals, Irvine, Calif.) to measure the de novo apoB synthesis. After 30 min, the animals received a Triton WR1339 injection (Tyloxapol, Sigma; 500 mg/kg body weight in 100 μl saline) to prevent systemic lipolysis of newly-secreted hepatic VLDL-TG (Aalto-Setala et al. 1992. J. Clin. Invest 90:1889-1900.27) Blood samples were drawn at 0, 15, 30, 60, and 90 min after Triton WR1339 injection and plasma TG concentrations were determined. After 90 min, the animals were sacrificed and blood was collected by retro-orbital bleeding for isolation of VLDL. VLDL composition: VLDL particles (d<1.019) were separated from other lipoproteins in plasma by density gradient ultra-centrifugation, as described in Jong et al., 1996 (Jong et al. 1996. Arterioscler. Thromb. Vasc. Biol. 16:934-940). Protein content of the VLDL fraction was determined by Lowry's assay (Lowry et al., 1951. J. Biol. Chem. 193:265-275), and TG and total C were determined as described above. Phospholipids and free cholesterol were determined using standard commercial kits (Wako Chemicals, Neuss, Germany). The ^35S-apoB content of VLDL was measured after selective precipitation of apoB with isopropanol as described elsewhere (Li et al. 1996 J. Lipid Res. 37:210-220; Pietzsch et al. 1995. Biochim. Biophys. Acta 1254:77-88). In vivo clearance of VLDL-like TG-rich particles: To determine whether 1% PS accelerates the clearance of TG-rich lipoproteins from plasma, we used radiolabeled emulsion particles as a tool. VLDL-like emulsion particles containing 200 μCi of [^3H]triolein and 20 μCi of [^14C]cholesteryl oleate were prepared and characterized as described in Rensen et al. 1997 (Rensen et al., 1997. J. Lipid Res. 38:1070-1084). Fed mice were anaesthetized as described above and laparotomy was performed. […] After taking the last liver and blood sample, the remainder of the liver, heart, spleen, hind limb muscle, and gonadal, perirenal and intestinal white adipose tissues were harvested. Lipids were extracted overnight at 60° C. in 500 μL of Solvable™, and radioactivity was counted as described in Rensen et al., 1997 (supra). RNA isolation and RT-PCR: Livers from 4 h-fasted mice fed 1% PS-containing diet or control Western-type diet for 5 weeks were removed immediately after sacrifice, flushed with cold 0.9% NaCl and snap frozen in liquid nitrogen. Total RNA was isolated as described by Chomczynski and Sacchi (Chomczynski, P. and Sacchi, N. 1987. Anal. Biochem. 162:156-159) by use of RNA-Bee™ (Campro Scientific, Berlin, Germany). cDNA synthesis was performed according to Bloks et al (Bloks et al., 2001. J. Lipid Res. 42:41-50). […]

[2] = tested on: apoE3*-Leiden mice; experiment: Example 2 overview: high fat high cholesterol W-diet with 1% phytosphingosine, 4 weeks; assay type: in vivo
Description: The experiment as described in example 1 was repeated several times but using 1% phytosphingosine as a supplement to the W-diet. Each time, one group (control group, consisting of 6 or 12 apoE3*-Leiden mice) was fed the high fat high cholesterol W-diet. Another group (treatment group, consisting of 6 or 12 apoE3*-Leiden mice), was fed the same high fat high cholesterol W-diet diet supplemented with 1% phytosphingosine.
In all mice the following parameters were determined (after 4 hours of fasting) after a diet period of 4 weeks: plasma total cholesterol (PTC), plasma triglycerides (PTG), plasma free fatty acids (PFFA), liver total cholesterol (LTC), liver triglycerides (LTG), liver cholesteryl esters (LCE), serum amyloid A (SAA) (mg/ml), fibrinogen (in mg/ml), body weight (in g), liver weight (in g), heart weight (in g), ALAT (in U/L).

CCCCCCCCCCCCCC[C@@H](O)[C@@H](O)[C@@H](N)CO [PS, phytosphingosine]
Plasma ALAT, % Δ vs control ([1]; 5 weeks): −79% | Plasma SAA, % Δ vs control ([1]; 5 weeks): −74% | Plasma ALAT ([1]; 5 weeks, 4 h-fasted): 41 ± 21 U/l | Plasma SAA ([1]; 5 weeks, 4 h-fasted): 3 ± 0.3 µg/mL | Plasma fibrinogen ([1]; 5 weeks, 4 h-fasted): 2.3 ± 0.7 mg/mL | Decrease of ALAT levels vs control ([1]; p<0.05): 79% | Decrease of SAA levels vs control ([1]; p<0.05): 74% | Plasma lipid levels (total cholesterol, triglycerides and free fatty acids) vs control ([2]; 1% PS in W-diet): significantly decreased | Liver lipid levels vs control ([2]; 1% PS in diet W): significantly decreased | ALAT vs control ([2]; 1% PS in the diet): significantly lowered | Plasma level of fibrinogen vs control ([2]; 1% phytosphingosine in W-diet): increased | Levels of serum amyloid A (SAA) vs control ([2]; 1% phytosphingosine in W-diet, 4 hours fasting): significantly lower
